Reference: patent US20190119284A1, “ErbB Inhibitors and Uses Thereof” (The Regents of the University of California, priority 2016, published 2019)

How the values were obtained:
ABL1 = ABL1 (Homo sapiens, UniProt P00519); assay: Nanosyn in vitro kinase profiling: ABL1; type: biochemical; conditions: for inhibition at 1 µM: compound at 1 μM
Experimental: (§1) This was confirmed by in vitro profiling against a panel of kinases, with compound 2 only showing potent inhibition of EGFR and Ab1 (Table 2).
(§2) In vitro Kinome Screen. In vitro profiling of compound 2 at 100 nM was conducted by Nanosyn.

LCK = LCK (Homo sapiens, UniProt P06239); assay: Nanosyn in vitro kinase profiling: LCK; type: biochemical; conditions: for inhibition at 1 µM: compound at 1 μM
Sequence of LCK (P06239 whole entry): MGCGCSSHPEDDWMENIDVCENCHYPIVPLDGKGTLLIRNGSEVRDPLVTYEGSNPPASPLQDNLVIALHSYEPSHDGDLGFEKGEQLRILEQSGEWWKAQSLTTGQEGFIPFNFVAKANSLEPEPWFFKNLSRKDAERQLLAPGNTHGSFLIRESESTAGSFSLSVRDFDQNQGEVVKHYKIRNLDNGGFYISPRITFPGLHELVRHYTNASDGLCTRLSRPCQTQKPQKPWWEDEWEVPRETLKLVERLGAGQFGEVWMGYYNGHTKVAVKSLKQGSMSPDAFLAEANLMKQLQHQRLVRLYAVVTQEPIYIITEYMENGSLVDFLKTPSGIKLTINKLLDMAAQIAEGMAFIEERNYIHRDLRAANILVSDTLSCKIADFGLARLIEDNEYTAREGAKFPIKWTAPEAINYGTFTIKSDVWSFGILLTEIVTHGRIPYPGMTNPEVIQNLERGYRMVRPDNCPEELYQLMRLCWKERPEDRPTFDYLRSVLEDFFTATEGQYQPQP
Experimental: as §1, §2

PDGFR-ALPHA = PDGFR-ALPHA (Homo sapiens, UniProt P16234); assay: Nanosyn in vitro kinase profiling: PDGFR-ALPHA; type: biochemical; conditions: for inhibition at 1 µM: compound at 1 μM
Experimental: as §1, §2

DYRK1A = DYRK1A (Homo sapiens, UniProt Q13627); assay: Nanosyn in vitro kinase profiling: DYRK1A; type: biochemical; conditions: for inhibition at 1 µM: compound at 1 μM
Experimental: as §1, §2

CDK2 = CDK2 (Homo sapiens, UniProt P24941); assay: Nanosyn in vitro kinase profiling: CDK2; type: biochemical; conditions: for inhibition at 1 µM: compound at 1 μM
Experimental: as §1, §2

MST1 = target: T1, MST1 (Homo sapiens, UniProt Q13043); assay: Nanosyn in vitro kinase profiling: MST1; type: biochemical; conditions: for inhibition at 1 µM: compound at 1 μM
T1 sequence (Q13043 1-487): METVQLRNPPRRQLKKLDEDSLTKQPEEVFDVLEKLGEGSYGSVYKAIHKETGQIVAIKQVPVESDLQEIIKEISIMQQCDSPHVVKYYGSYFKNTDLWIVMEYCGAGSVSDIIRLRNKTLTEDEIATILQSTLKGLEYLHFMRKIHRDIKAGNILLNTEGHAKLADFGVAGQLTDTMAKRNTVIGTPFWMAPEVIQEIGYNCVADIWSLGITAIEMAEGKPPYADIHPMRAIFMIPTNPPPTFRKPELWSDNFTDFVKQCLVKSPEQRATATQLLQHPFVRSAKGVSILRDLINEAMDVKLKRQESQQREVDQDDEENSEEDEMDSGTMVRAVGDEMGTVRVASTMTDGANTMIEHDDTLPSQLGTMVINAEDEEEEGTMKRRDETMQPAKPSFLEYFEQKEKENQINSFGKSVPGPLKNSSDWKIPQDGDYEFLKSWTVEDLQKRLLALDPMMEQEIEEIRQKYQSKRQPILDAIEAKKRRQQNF
Experimental: as §1, §2

CK1-EPSILON = CK1-EPSILON (Homo sapiens, UniProt P49674); assay: Nanosyn in vitro kinase profiling: CK1-EPSILON; type: biochemical; conditions: for inhibition at 1 µM: compound at 1 μM
Experimental: as §1, §2

ROCK1 = ROCK1 (Homo sapiens, UniProt Q13464); assay: Nanosyn in vitro kinase profiling: ROCK1; type: biochemical; conditions: for inhibition at 1 µM: compound at 1 μM
Sequence of ROCK1 (Q13464 whole entry, species assumed): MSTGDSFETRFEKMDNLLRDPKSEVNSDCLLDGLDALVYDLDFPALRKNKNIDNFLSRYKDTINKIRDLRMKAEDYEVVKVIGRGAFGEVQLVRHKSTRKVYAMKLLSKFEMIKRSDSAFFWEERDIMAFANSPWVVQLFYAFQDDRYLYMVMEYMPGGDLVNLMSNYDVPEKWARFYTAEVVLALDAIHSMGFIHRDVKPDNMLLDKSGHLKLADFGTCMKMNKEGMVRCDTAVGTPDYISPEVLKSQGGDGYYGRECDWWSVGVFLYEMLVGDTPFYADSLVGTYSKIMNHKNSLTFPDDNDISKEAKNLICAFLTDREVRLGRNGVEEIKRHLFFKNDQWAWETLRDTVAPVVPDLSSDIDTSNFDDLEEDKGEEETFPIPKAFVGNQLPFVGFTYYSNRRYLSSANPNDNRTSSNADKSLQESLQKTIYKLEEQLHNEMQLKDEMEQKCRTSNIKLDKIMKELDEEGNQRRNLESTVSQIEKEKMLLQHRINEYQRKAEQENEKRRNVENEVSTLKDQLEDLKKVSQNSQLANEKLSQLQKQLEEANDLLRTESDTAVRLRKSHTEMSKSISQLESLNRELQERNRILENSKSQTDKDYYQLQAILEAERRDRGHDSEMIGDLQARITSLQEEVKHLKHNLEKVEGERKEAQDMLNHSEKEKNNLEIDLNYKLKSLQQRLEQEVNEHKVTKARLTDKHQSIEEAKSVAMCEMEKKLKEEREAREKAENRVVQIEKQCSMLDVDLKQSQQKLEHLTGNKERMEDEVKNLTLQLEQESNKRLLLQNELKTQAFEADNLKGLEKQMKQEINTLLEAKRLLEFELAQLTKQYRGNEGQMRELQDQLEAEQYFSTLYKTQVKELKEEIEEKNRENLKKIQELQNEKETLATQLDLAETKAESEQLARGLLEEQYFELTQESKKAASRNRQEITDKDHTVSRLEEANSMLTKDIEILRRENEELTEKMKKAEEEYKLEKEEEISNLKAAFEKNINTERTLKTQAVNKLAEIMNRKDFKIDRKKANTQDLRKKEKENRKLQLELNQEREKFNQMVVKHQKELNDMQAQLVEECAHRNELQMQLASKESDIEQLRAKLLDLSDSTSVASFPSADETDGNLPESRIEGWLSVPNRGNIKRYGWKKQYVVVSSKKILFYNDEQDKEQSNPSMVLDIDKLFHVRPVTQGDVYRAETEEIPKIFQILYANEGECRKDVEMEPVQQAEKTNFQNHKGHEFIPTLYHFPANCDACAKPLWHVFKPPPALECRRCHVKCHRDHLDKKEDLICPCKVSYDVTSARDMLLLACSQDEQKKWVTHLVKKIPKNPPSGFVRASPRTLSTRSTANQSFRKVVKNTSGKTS
Experimental: as §1, §2

PAK2 = PAK2 (Homo sapiens, UniProt Q13177); assay: Nanosyn in vitro kinase profiling: PAK2; type: biochemical; conditions: for inhibition at 1 µM: compound at 1 μM
Sequence of PAK2 (Q13177 whole entry, species assumed): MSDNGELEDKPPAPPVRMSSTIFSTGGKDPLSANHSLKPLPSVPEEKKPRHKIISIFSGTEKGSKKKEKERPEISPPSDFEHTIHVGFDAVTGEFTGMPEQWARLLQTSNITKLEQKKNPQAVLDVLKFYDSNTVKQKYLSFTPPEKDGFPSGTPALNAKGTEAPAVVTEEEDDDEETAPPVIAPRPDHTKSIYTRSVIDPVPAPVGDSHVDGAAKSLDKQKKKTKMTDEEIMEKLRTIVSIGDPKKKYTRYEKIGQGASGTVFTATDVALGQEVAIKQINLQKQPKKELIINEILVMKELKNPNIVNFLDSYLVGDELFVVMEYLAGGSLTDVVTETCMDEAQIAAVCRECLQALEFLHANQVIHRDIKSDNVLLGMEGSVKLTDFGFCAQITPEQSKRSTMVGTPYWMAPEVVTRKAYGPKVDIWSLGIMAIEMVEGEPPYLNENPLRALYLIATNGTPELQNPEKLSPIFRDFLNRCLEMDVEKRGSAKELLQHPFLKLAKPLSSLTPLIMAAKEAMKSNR
Experimental: as §1, §2

DAPK1 = DAPK1 (Homo sapiens, UniProt P53355); assay: Nanosyn in vitro kinase profiling: DAPK1; type: biochemical; conditions: for inhibition at 1 µM: compound at 1 μM
Sequence of DAPK1 (P53355 whole entry, species assumed): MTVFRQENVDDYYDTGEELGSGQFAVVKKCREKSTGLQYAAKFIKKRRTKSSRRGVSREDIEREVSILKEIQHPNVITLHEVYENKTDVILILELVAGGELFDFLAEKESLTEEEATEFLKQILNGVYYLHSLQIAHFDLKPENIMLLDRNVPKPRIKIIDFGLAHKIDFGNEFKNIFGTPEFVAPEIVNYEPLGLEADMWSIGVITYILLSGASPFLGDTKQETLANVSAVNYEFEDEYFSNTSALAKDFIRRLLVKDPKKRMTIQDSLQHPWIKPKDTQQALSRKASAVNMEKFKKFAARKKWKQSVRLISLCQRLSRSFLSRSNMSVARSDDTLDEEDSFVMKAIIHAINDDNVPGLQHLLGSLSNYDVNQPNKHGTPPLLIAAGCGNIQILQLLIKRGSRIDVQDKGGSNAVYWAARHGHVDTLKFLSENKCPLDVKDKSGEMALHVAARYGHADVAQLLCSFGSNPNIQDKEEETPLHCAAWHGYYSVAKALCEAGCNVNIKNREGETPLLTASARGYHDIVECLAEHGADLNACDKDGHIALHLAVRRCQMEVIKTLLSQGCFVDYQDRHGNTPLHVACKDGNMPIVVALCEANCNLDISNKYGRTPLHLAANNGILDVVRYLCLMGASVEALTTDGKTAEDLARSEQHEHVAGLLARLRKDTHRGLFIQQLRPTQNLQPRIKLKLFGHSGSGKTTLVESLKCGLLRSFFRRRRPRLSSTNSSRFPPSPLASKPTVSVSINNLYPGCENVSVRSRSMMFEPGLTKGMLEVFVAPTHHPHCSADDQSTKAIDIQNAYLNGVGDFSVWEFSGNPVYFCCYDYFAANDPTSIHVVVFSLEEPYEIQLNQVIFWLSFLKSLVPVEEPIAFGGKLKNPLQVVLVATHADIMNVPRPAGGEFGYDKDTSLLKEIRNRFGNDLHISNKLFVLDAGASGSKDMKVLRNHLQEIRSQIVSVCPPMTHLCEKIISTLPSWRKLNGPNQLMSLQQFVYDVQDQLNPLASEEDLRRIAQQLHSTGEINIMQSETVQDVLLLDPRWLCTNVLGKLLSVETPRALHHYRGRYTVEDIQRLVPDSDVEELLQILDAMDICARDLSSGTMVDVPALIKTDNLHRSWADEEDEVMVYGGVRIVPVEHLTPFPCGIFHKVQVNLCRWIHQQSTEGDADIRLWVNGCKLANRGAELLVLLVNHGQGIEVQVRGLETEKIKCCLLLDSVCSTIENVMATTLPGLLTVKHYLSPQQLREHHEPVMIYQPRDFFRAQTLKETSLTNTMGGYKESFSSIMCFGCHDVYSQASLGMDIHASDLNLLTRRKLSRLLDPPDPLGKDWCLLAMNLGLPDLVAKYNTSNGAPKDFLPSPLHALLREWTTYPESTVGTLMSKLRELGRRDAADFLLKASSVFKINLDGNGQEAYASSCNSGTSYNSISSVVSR
Experimental: as §1, §2

Axl+ Ba/F3 cells = target: T2, Axl+ Ba/F3 cells (Homo sapiens, UniProt P30530); assay: Ba/F3 proliferation assay, Axl+; type: cell-based; conditions: Table 4; ± S.D., n = 3; 48 h Cell Titer Glo; read-out: IC50, Axl
T2 sequence (P30530 1-894): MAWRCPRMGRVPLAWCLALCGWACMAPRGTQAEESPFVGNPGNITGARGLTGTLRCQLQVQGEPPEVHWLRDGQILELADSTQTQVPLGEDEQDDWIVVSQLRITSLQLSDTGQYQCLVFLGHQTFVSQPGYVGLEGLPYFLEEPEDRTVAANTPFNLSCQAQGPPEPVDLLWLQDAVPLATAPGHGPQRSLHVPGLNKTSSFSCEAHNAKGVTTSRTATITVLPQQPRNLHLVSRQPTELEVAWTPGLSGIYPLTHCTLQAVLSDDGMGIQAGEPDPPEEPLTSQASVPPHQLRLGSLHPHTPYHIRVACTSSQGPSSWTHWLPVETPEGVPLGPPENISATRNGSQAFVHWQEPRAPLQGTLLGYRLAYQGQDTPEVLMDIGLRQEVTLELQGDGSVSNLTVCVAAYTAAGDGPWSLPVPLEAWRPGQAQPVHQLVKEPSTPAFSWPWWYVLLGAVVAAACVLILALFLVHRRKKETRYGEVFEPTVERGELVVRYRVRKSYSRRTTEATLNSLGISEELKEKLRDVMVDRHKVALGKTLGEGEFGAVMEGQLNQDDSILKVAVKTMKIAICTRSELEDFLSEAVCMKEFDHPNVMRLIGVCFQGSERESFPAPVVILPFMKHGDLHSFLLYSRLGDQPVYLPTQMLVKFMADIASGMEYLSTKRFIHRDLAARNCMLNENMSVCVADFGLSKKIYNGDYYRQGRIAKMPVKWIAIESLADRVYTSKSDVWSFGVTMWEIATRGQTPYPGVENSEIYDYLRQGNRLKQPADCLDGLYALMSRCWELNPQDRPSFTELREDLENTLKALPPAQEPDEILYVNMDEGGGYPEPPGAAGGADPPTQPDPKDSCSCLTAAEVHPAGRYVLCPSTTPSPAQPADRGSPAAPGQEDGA
Summary of the method: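 Ba/F3 cells transduced with Axl and selected for IL-3-independent growth. Cells combined with drug dilutions, and with IL-3 (10 ng/mL) or NRG (6.25 ng/mL) where needed, for 48 h at 37 °C. CellTiter-Glo read, normalized to DMSO, fitted with variable-slope log(inhibitor) regression.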

Sequence of ABL1 (P00519 whole entry): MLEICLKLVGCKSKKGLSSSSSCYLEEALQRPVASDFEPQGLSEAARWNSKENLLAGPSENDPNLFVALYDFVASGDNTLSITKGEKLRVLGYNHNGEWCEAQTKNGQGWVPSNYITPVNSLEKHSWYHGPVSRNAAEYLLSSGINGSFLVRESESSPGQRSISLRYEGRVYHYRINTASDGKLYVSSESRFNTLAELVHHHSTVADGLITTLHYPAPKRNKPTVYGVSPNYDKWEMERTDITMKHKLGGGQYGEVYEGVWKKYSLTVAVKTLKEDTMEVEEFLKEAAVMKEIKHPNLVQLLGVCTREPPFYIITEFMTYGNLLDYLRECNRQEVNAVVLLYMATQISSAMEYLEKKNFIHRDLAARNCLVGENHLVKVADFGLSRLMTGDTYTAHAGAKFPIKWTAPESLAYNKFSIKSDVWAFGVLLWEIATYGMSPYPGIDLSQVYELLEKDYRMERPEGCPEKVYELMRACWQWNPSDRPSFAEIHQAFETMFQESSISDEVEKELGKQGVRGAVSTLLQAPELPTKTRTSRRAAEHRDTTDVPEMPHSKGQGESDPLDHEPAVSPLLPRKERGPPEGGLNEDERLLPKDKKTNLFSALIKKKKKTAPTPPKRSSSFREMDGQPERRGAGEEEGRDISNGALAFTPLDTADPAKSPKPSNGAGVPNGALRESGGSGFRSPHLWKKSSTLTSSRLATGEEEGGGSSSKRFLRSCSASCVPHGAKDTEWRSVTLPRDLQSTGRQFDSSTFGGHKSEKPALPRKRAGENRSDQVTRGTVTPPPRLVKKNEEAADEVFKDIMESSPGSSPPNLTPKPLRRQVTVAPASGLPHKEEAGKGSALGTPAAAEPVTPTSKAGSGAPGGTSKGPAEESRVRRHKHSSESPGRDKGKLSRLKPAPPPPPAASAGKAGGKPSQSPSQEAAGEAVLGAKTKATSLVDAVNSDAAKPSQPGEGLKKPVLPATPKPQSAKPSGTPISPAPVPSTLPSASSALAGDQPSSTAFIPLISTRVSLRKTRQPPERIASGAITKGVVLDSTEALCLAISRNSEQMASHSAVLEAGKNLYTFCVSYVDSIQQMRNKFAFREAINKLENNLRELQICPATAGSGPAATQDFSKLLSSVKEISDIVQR

Structure (SMILES)	inhibition at 1 µM (ABL1)	inhibition at 1 µM (LCK)	inhibition at 1 µM (PDGFR-ALPHA)	inhibition at 1 µM (DYRK1A)	inhibition at 1 µM (CDK2)	inhibition at 1 µM (MST1)	inhibition at 1 µM (CK1-EPSILON)	inhibition at 1 µM (ROCK1)	inhibition at 1 µM (PAK2)	inhibition at 1 µM (DAPK1)	GI50 (Axl+ Ba/F3 cells)	further results
COc1ccc(-c2ccco2)cc1Nc1ncnc2[nH]nc(-c3ccco3)c12 [compound 2, 3-(furan-2-yl)-N-(5-(furan-2-yl)-2-methoxyphenyl)-1H-pyrazolo[3,4-d]pyrimidin-4-amine]	97.2%	93.6%	52.5%	16.7%	17.6%	19.9%	24.1%	1.16%	1.07%	1.43%	–	inhibition at 0.1 µM (ABL1; compound at 100 nM): 95.2%; inhibition at 0.1 µM (LCK; compound at 100 nM): 74.2%; inhibition at 0.1 µM (PDGFR-ALPHA; compound at 100 nM): 11.8%; inhibition at 0.1 µM (DYRK1A; compound at 100 nM): 5%; inhibition at 0.1 µM (CDK2; compound at 100 nM): 4.14%; inhibition at 0.1 µM (MST1; compound at 100 nM): 3.85%; inhibition at 0.1 µM (CK1-EPSILON; compound at 100 nM): 3.45%; inhibition at 0.1 µM (ROCK1; compound at 100 nM): 0.155%; inhibition at 0.1 µM (PAK2; compound at 100 nM): 0.085%; inhibition at 0.1 µM (DAPK1; compound at 100 nM): -0.52%
COc1ccc(-c2ccoc2)cc1Nc1ncnc2[nH]cc(-c3cc[nH]n3)c12 [compound 3, N-(5-(furan-3-yl)-2-methoxyphenyl)-5-(1H-pyrazol-3-yl)-7H-pyrrolo[2,3-d]pyrimidin-4-amine]	98%	98%	66%	41%	10%	84%	11%	16%	3%	-1%	1170 ± 106 nM	–
CS(=O)(=O)CCNCc1ccc(-c2ccc3ncnc(Nc4ccc(OCc5cccc(F)c5)c(Cl)c4)c3c2)o1 [lapatinib]	–	–	–	–	–	–	–	–	–	–	> 3330 nM	–
